Laboratory results reported in patent US9624286B2, “Composition comprising peptide derived from adiponectin” (KNU-INDUSTRY COOPERATION FOUNDATION, priority 2013, dated 2017).

Experiments:
[1] = tested on: NIH3T3 cells; test: Tests for facilitating the proliferation of mouse fibroblast cell line NIH3T3 (CCK-8); type: cell-based; conditions: peptide 10 μM; 24, 48 and 72 hours; CCK-8 absorbance at 475 nm; FIG. 1
Protocol: The NIH3T3 cells (mouse fibroblast cell line, ATCC CRL-1658, USA), along with 100 μl of Dulbecco's Modified Eagle medium (DMEM), were added to each well of the 96-well microplate in the concentration of 5×10^3 cells per well, and then cultured in a 5% CO2 incubator at 37° C. for 24 hours. The peptide solutions (100 μl) having the respective peptide of SEQ ID NOs: 1, 2, 3 and 5 in the concentration of 10 μM were added to each well. While incubating the cells for 24, 48, and 72 hours therefrom, 10 μl of CCK-8 (Dojindo Laboratories, Japan) was added to each well and then the respective absorbance at 475 nm was measured with Spectramax plus 190 plate reader (Molecular Devices, USA).

[2] = tested on: procollagen type-1; test: Activation of the procollagen type-1 expression in fibroblasts (Western blotting); type: cell-based, mouse; conditions: NIH3T3 cells, peptide 0.1, 1 and 10 μM, 48 hours, concentration-dependent, FIG. 2
Protocol: Since facilitation of the collagen fiber synthesis is one of the principal means for inhibiting skin aging, we evaluate whether the collagen synthesis in fibroblasts is facilitated by the treatment of the peptides of the present invention, using the NIH3T3 cells (mouse fibroblast cell line, ATCC CRL-1658, USA). The fibroblasts were treated with the peptides of SEQ ID NOs: 1, 2, 3 and 5, in the concentrations of 0.1, 1 and 10 μM, respectively. After 48 hours, the cell extracts were subject to the Western blotting assay so as to measure the expressions of procollagen type-1. […] Therefore, it can be seen that the peptides of the present invention can inhibit skin aging derived from loss of collagen, especially skin wrinkle.

[3] = tested on: profilaggrin; test: Control of the profilaggrin expression in human keratinocyte cell line HaCaT (Western blotting); type: cell-based; conditions: HaCaT cells, peptide 0.1, 1.0 and 10 μM, 48 hours, concentration-dependent, FIG. 3
Protocol: Since profilaggrin is one of the principal elements for constituting skin barrier, we evaluate whether the profilaggrin synthesis in keratinocytes is facilitated by the treatment of the peptides of the present invention, using the HaCaT cells (human keratinocyte cell line, DKFZ, Heidelberg, Germany). The HaCaT cells were treated with the peptides of SEQ ID NOs: 3 and 5, in the concentrations of 0.1, 1.0 and 10 μM. After 48 hours, the cell extracts were subject to the Western blotting assay so as to measure the expressions of profilaggrin. […] Therefore, it can be seen that the peptides of the present invention have a skin-moisturizing activity through facilitating the profilaggrin expression.

Substance	proliferations of NIH3T3 cells [1]	expressions of procollagen type-1 [2]	expressions of profilaggrin [3]
His-Ile-Thr (HIT; Peptide fragment) [SEQ ID NO: 2, adiponectin-derived peptide fragment]	significantly increased	increased	–
Leu-Phe-Thr-Tyr-Asp (LFTYD; Peptide fragment) [SEQ ID NO: 3, adiponectin-derived peptide fragment]	significantly increased	increased	increased
Phe-Thr-Tyr (FTY; Peptide fragment) [SEQ ID NO: 5, adiponectin-derived peptide fragment]	significantly increased	increased	increased
Tyr-His-Ile-Thr (YHIT; Peptide fragment) [SEQ ID NO: 1, adiponectin-derived peptide fragment]	significantly increased	increased	–
